Assay [1] addresses T1, plasma dipeptidylpeptidase IV (Mus musculus, UniProt P28843).
T1 construct: The blood samples were centrifuged at 6000 rpm for 2 minutes to separate plasma; from tissue; host or cells: plasma of male ICR mice (Charles River Laboratories Japan)
As to the kind of experiment: Inhibition of plasma dipeptidylpeptidase IV activity in mice by oral administration. The note with it: male ICR mice, 0.1 mg/mL suspension at 10 mL/kg, 30 minutes after administration. The format is in vivo. As to the method:
Each compound was suspended in 0.3% sodium carboxymethylcellulose to a concentration of 0.1 mg/mL. The preparation was orally administered to 8 weeks old male ICR mice (Charles River Laboratories Japan) at a dose of 10 mL/kg. Using an EDTA 2K-treated capillary tube, blood samples were collected from the tail vein before administration and 30 minutes after administration. The blood samples were centrifuged at 6000 rpm for 2 minutes to separate plasma. […] The inhibition was determined from the decrease in the enzymatic activity from the initial activity (% inhibition={(activity before administration−activity after administration)/(activity before administration)}×100).

In assay [2] the target is T2, plasma dipeptidylpeptidase IV (Homo sapiens, UniProt P27487).
T2 construct: 20 μL of plasma diluted 8-fold with saline in a well of a 96-well flat bottom plate; from tissue
As to the kind of experiment: In vitro dipeptidylpeptidase IV inhibition (H-Gly-Pro-AMC hydrolysis by plasma, fluorometry). The format is biochemical. The note with it: plasma diluted 8-fold, H-Gly-Pro-AMC.HBr substrate, room temperature, 20 minutes. As to the method:
The concentration of free 7-amino-4-methyl-coumarin (AMC) generated by hydrolysis of H-Gly-Pro-AMC.HBr substrate by plasma dipeptidylpeptidase IV was determined by fluorometry.
A 20 μL of buffer (25 mmol/L hepes, 140 mmol/L sodium chloride, 1% bovine serum albumin, 80 mmol/L magnesium chloride hexahydrate, pH 7.4) containing each compound was added to 20 μL of plasma diluted 8-fold with saline in a well of a 96-well flat bottom plate. The plate was left at room temperature for 5 minutes and 10 μL of 0.1 mmol/L H-Gly-Pro-AMC.HBr solution was added to each well to initiate the reaction. […] Using a fluorescent plate reader, the free AMC concentration was determined by exciting the samples at 355 nm and measuring the fluorescence intensity at 460 nm.

T2 sequence (P27487 39-766 limits assumed): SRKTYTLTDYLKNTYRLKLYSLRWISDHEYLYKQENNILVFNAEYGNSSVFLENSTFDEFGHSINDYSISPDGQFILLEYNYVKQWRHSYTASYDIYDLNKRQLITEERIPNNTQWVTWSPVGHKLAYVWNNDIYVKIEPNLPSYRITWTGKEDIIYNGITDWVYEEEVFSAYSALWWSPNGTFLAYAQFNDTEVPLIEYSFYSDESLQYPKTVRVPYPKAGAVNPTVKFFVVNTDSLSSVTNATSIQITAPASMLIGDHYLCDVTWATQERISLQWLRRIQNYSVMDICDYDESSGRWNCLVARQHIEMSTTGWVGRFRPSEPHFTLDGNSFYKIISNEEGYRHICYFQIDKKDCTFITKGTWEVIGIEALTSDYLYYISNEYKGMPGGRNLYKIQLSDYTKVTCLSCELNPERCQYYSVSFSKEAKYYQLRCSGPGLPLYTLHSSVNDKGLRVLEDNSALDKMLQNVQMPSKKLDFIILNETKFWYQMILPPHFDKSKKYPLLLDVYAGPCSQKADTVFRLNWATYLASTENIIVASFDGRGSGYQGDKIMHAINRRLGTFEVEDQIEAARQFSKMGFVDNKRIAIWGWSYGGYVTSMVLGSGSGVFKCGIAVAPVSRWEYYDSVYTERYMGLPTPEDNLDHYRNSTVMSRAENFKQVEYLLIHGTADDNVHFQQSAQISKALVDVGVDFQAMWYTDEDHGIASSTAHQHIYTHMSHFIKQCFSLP
T1 sequence (P28843 37-760 limits assumed): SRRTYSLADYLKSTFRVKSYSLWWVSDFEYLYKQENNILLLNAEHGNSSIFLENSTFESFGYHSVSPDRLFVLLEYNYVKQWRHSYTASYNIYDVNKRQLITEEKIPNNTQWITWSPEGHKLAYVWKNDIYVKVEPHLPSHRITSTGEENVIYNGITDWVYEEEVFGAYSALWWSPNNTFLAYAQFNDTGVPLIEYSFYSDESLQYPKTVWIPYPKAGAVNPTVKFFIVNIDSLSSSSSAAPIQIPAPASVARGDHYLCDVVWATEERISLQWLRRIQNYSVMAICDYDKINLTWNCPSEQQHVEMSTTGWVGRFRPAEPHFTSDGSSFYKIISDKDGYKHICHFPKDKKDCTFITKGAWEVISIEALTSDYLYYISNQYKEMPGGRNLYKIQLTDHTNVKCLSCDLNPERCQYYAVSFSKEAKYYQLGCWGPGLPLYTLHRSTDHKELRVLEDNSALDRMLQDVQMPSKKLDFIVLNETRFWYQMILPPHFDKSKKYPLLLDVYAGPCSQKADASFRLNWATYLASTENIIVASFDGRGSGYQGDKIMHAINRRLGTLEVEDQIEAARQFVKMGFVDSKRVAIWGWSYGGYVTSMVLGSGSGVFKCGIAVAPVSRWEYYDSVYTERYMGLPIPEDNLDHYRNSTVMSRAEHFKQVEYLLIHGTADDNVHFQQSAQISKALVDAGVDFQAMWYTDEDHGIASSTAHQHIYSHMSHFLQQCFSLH

The compound `N#C[C@@H]1C[C@H](F)CN1C(=O)CNC12CCC(F)(CC1)CC2` [Example 7, (2S,4S)-1-[[N-(4-fluorobicyclo[2,2,2]oct-1-yl)amino]acetyl]-4-fluoropyrrolidine-2-carbonitrile] displayed an inhibition at 1 mg/kg in assay [1] of 91%.
Take `CC12CCC(NCC(=O)N3C[C@@H](F)C[C@H]3C#N)(CC1)CC2` [Example 3, (2S,4S)-1-[[N-(4-methylbicyclo[2,2,2]oct-1-yl)amino]acetyl]-4-fluoropyrrolidine-2-carbonitrile]: the IC50 in assay [2] came to 0.25 nM. In assay [1], this compound had an inhibition at 1 mg/kg of 100%.
For `N#C[C@@H]1C[C@H](F)CN1C(=O)CNC12CCC(CO)(CC1)CC2` [Example 5, (2S,4S)-1-[[N-(4-hydroxymethylbicyclo[2,2,2]oct-1-yl)amino]acetyl]-4-fluoropyrrolidine-2-carbonitrile], the concentration for half-maximal inhibition (IC50) in assay [2] is 1.1 nM.
Consider `N#C[C@@H]1C[C@H](F)CN1C(=O)CNC12CCC(C(=O)O)(CC1)CC2` [Example 1, (2S,4S)-1-[[N-(4-carboxybicyclo[2,2,2]oct-1-yl)amino]acetyl]-4-fluoropyrrolidine-2-carbonitrile], for which the IC50 in assay [2] amounted to 3.1 nM.

By inhibition is commonly meant the drop in the measured response relative to a control, in per cent. A higher inhibition goes with a response far below the control. In general, IC50 refers to the concentration that inhibits the measured activity by half. Lower therefore signals higher potency.

The record behind these values is patent publication US7514571B2, “Bicyclo derivative” (Kyorin Pharmaceutical Co., Ltd., priority 2004, dated 2009).
